Experimental data: US20170354148A1, “SAFENED HERBICIDAL COMPOSITIONS CONTAINING HALAUXIFEN AND METHODS OF USE THEREOF IN BRASSICA SPECIES” (Dow AgroSciences LLC, priority 2016, published 2017)

Tests used:
[1] = system: spring oilseed rape (Brassica napus, BRSNS); experiment: Example 4 field trials (Europe), postemergence crop safety, visual phytotoxicity
[2] = system: winter oilseed rape (Brassica napus, BRSNW); experiment: Example 5 greenhouse trials, postemergence visual injury; conditions: for % Visual Injury Obs / Visual Injury Obs: BRSNW
[3] = system: rutabaga (Brassica napus var. napobrassica, BRSNA); experiment: as above; conditions: for % Visual Injury Obs / Visual Injury Obs: BRSNA
[4] = system: winter oilseed rape (Brassica napus, BRSNW); experiment: Example 4 field trials (Europe), postemergence crop safety, visual phytotoxicity; conditions: for Mean % Visual Injury / Mean % Visual Deformation: alone or mixed
[5] = system: turnip or Polish canola (Brassica rapa, BRSRR); experiment: Example 5 greenhouse trials, postemergence visual injury; conditions: for % Visual Injury Obs / Visual Injury Obs: BRSRR
[6] = system: Aparima Gold swede (Brassica sp., BRSSS); experiment: Example 2 field trials (Canterbury, New Zealand), postemergence crop safety, visual phytotoxicity
[7] = system: Aparima Gold swede (Brassica sp., BRSSS); experiment: Example 1 pot trials, postemergence crop safety, visual phytotoxicity
[8] = 6DAA1, halauxifen-methyl 5, clopyralid-olamine 120 g ae/ha
[9] = 7DAA1, halauxifen-methyl 5, clopyralid-olamine 120 g ae/ha
[10] = 19DAA1, halauxifen-methyl 5, clopyralid-olamine 120 g ae/ha
[11] = Trial 1, 27DAA1, halauxifen-methyl 5, clopyralid-olamine 120 g ae/ha
[12] = Trial 2, 6DAA1, halauxifen-methyl 5, clopyralid-olamine 120 g ae/ha
[13] = Trial 2, 7DAA1, halauxifen-methyl 5, clopyralid-olamine 120 g ae/ha
[14] = halauxifen-methyl alone 2.5 g ai/ha
[15] = halauxifen-methyl alone 5 g ai/ha
[16] = halauxifen-methyl alone 10 g ai/ha

O=C(O)c1nc(Cl)ccc1Cl [Clopyralid-olamine, 2-hydroxyethanaminium 3,6-dichloro-2-pyridinecarboxylate]
Mean % Visual Growth Inhibition ([1]; Trial 1, 14DAA1, 125 g ae/ha alone): 3.0%
Mean % Visual Growth Inhibition ([1]; Trial 1, 14DAA1, 250 g ae/ha alone): 3.0%
Mean % Visual Growth Inhibition ([1]; Trial 2, 17DAA1, 100 g ae/ha alone): 0.0%
Mean % Visual Growth Inhibition ([1]; Trial 2, 17DAA1, 120 g ae/ha alone): 2.3%
Mean % Visual Growth Inhibition ([1]; Trial 2, 24DAA1, 100 g ae/ha alone): 0.0%
Mean % Visual Growth Inhibition ([1]; Trial 2, 24DAA1, 120 g ae/ha alone): 2.0%
% Visual Injury Obs ([2]; 50 g ai/ha alone, 20-22 d): 0%
% Visual Injury Obs ([2]; 100 g ai/ha alone, 20-22 d): 0%
% Visual Injury Obs ([2]; 200 g ai/ha alone, 20-22 d): 0%
% Visual Injury Obs ([3]; 50 g ai/ha alone, 20-22 d): 0%
% Visual Injury Obs ([3]; 100 g ai/ha alone, 20-22 d): 0%
% Visual Injury Obs ([3]; 200 g ai/ha alone, 20-22 d): 0%
Mean % Visual Injury [4, 8]: 1%
Mean % Visual Injury [4, 9]: 1%
Mean % Visual Injury [4, 10]: 1%
Mean % Visual Growth Inhibition ([4]; 85DAA1, 120 g ae/ha alone): 3.8%
Mean % Visual Deformation [4, 11]: 23.8%
Mean % Visual Deformation [4, 12]: 1.0%
Mean % Visual Deformation [4, 13]: 1.0%
% Visual Injury Obs ([5]; 50 g ai/ha alone, 20-22 d): 0%
% Visual Injury Obs ([5]; 100 g ai/ha alone, 20-22 d): 0%
% Visual Injury Obs ([5]; 200 g ai/ha alone, 20-22 d): 0%

COC(=O)c1nc(-c2ccc(Cl)c(OC)c2F)cc(N)c1Cl [Halauxifen-methyl, methyl 4-amino-3-chloro-6-(4-chloro-2-fluoro-3-methoxyphenyl)-2-pyridineccarboxylate]
Mean % Visual Growth Inhibition ([6]; 22DAA1, 7.5 g ae/ha): 25.0%
Mean % Visual Injury ([6]; 22DAA1, 7.5 g ae/ha): 32.5%
Mean % Visual Growth Inhibition ([6]; 28DAA1, 3.75 g ae/ha): 15.0%
Mean % Visual Injury ([6]; 28DAA1, 3.75 g ae/ha): 10.0%
Mean % Visual Growth Inhibition ([6]; 28DAA1, 7.5 g ae/ha): 22.5%
Mean % Visual Injury ([6]; 28DAA1, 7.5 g ae/ha): 27.5%
Mean % Visual Growth Inhibition ([6]; 56DAA1, 7.5 g ae/ha): 23.8%
Mean % Visual Injury ([7]; 3DAA1, 15 g ae/ha): 14.4%
Mean % Visual Injury ([7]; 7DAA1, 15 g ae/ha): 16.2%
Mean % Visual Injury ([7]; 15DAA1, 15 g ae/ha): 16.2%
Mean % Visual Injury ([7]; 28DAA1, 15 g ae/ha): 39.0%
Mean % Visual Growth Inhibition ([1]; Trial 1, 14DAA1, 5 g ae/ha alone): 3%
Mean % Visual Growth Inhibition ([1]; Trial 1, 14DAA1, 6 g ae/ha alone): 3%
Mean % Visual Growth Inhibition ([1]; Trial 1, 14DAA1, 10 g ae/ha alone): 3%
Mean % Visual Growth Inhibition ([1]; Trial 1, 14DAA1, 12 g ae/ha alone): 3%
Mean % Visual Growth Inhibition ([1]; Trial 2, 17DAA1, 5 g ae/ha alone): 10%
Mean % Visual Growth Inhibition ([1]; Trial 2, 24DAA1, 5 g ae/ha alone): 10%
% Visual Injury Obs ([2]; 2.5 g ai/ha alone, 20-22 d): 7%
% Visual Injury Obs ([2]; 5 g ai/ha alone, 20-22 d): 10%
% Visual Injury Obs ([2]; 10 g ai/ha alone, 20-22 d): 14%
% Visual Injury Obs ([2]; halauxifen-methyl 2.5 g ai/ha): 7%
Visual Injury Obs ([2]; halauxifen-methyl 2.5 g ai/ha): 7%
% Visual Injury Obs ([2]; halauxifen-methyl 5 g ai/ha): 10%
Visual Injury Obs ([2]; halauxifen-methyl 5 g ai/ha): 10%
% Visual Injury Obs ([2]; halauxifen-methyl 10 g ai/ha): 14%
Visual Injury Obs ([2]; halauxifen-methyl 10 g ai/ha): 14%
Percent (%) Visual Injury BRSNW Obs [2, 14]: 7%
Percent (%) Visual Injury BRSNW Obs [2, 15]: 10%
Percent (%) Visual Injury BRSNW Obs [2, 16]: 14%
% Visual Injury Obs ([3]; 2.5 g ai/ha alone, 20-22 d): 5%
% Visual Injury Obs ([3]; 5 g ai/ha alone, 20-22 d): 5%
% Visual Injury Obs ([3]; 10 g ai/ha alone, 20-22 d): 10%
% Visual Injury Obs ([3]; halauxifen-methyl 2.5 g ai/ha): 5%
Visual Injury Obs ([3]; halauxifen-methyl 2.5 g ai/ha): 5%
% Visual Injury Obs ([3]; halauxifen-methyl 5 g ai/ha): 5%
Visual Injury Obs ([3]; halauxifen-methyl 5 g ai/ha): 5%
% Visual Injury Obs ([3]; halauxifen-methyl 10 g ai/ha): 10%
Visual Injury Obs ([3]; halauxifen-methyl 10 g ai/ha): 10%
Percent (%) Visual Injury BRSNA Obs [3, 14]: 5%
Percent (%) Visual Injury BRSNA Obs [3, 15]: 5%
Percent (%) Visual Injury BRSNA Obs [3, 16]: 10%
Mean % Visual Injury [4, 8]: 1%
Mean % Visual Injury [4, 9]: 1%
Mean % Visual Injury [4, 10]: 1%
Mean % Visual Growth Inhibition ([4]; 85DAA1, 5 g ae/ha alone): 5.0%
Mean % Visual Deformation [4, 11]: 0%
Mean % Visual Deformation [4, 12]: 1%
Mean % Visual Deformation [4, 13]: 1%
% Visual Injury Obs ([5]; 2.5 g ai/ha alone, 20-22 d): 5%
% Visual Injury Obs ([5]; 5 g ai/ha alone, 20-22 d): 6%
% Visual Injury Obs ([5]; 10 g ai/ha alone, 20-22 d): 10%
% Visual Injury Obs ([5]; halauxifen-methyl 2.5 g ai/ha): 5%
Visual Injury Obs ([5]; halauxifen-methyl 2.5 g ai/ha): 5%
% Visual Injury Obs ([5]; halauxifen-methyl 5 g ai/ha): 6%
Visual Injury Obs ([5]; halauxifen-methyl 5 g ai/ha): 6%
% Visual Injury Obs ([5]; halauxifen-methyl 10 g ai/ha): 10%
Visual Injury Obs ([5]; halauxifen-methyl 10 g ai/ha): 10%
Percent (%) Visual Injury BRSRR Obs [5, 14]: 5%
Percent (%) Visual Injury BRSRR Obs [5, 15]: 6%
Percent (%) Visual Injury BRSRR Obs [5, 16]: 10%
